From patent US11110195B2, “Esculentin 1a derivatives and uses thereof” (University of Houston System, priority 2013, dated 2021)
Residues, ends and D or L forms follow the SMILES beside them.

Experiments:
P. aeruginosa ATCC 27853 = test: Bactericidal activity in the presence of salt (NaCl); format: cell-based, Pseudomonas aeruginosa; conditions: 150 mM NaCl, 37° C., 20 min
Experimental: FIGS. 1A-1B show the effects of salt on the bactericidal activity of Esc-1a(1-21)NH2 against P. aeruginosa ATCC 27853. FIG. 1A: Bacterial cells were incubated with different concentrations of Esc-1a(1-21)NH2 in the presence of 150 mM NaCl for 20 minutes at 37° C. Mean data from three experiments, expressed as the percentage of bacteria killed by the peptide with respect to the control sample (bacteria not treated with the peptide) are reported. FIG. 1B: Bacterial cells were incubated with the peptide (1 μM) in the absence or in the presence of varying concentrations of NaCl at 37° C. for 20 minutes. Mean data from three experiments, expressed as the percentage of bacteria killed by the peptide with respect to the control sample (bacteria not treated with the peptide) are reported.
Owing to their mode of action, the antimicrobial activity of antimicrobial peptides may be reduced in the presence of salt. […] In FIG. 1B, 2×10^6 CFU/ml P. aeruginosa (ATCC 27853) were incubated with 1 μM Esc-1a(1-21)NH2 in the presence of increasing amounts of NaCl at 37° C. for 20 minutes then aliquots plated and counted (n=3). Concentrations of Esc-1a(1-21)NH2 at 0.68 μM and above fully retained activity in 150 mM NaCl, the physiological salt concentration at the ocular surface.

HaCaT keratinocytes = system: HaCaT keratinocytes
Text: Cell viability is expressed as percentage with respect to the control (cells not treated with the peptide). Data points represent the mean of triplicate samples ±SEM.

[1] = system: Pseudomonas aeruginosa ATCC 19660 induced keratitis; test: Clinical grading of Pseudomonas keratitis in mice; format: in vivo, C57BL/6 mice; conditions: scale 0-4
Experimental: C57BL/6 mice were infected in one eye with P. aeruginosa ATCC 19660 and treated with 40 μM Esc-1a(1-21)NH2 or vehicle control (PBS). In some animals (Pre-trt group) treatment with Esc-1a(1-21)NH2 was initiated 24 hrs prior to infection. […] There was no significant difference between the Esc-1a(1-21)NH2 pretreatment group and when treatment was begun after infection.
To determine a clinical score, neutrophil infiltration by myeloperoxidase assay (MPO assay) and viable bacterial cell counts in infected and control corneas of C57BL/6 mice with Pseudomonas aeruginosa ATCC 19660 keratitis following pre-treatment and post-infection treatment with Esc-1a(1-21)NH2 up to 5 days post-infection (PI) the following experiment was performed. In these experiments pre-treatment refers to a group of animals where treatment was initiated 24 hrs before infection then continued after infection.
Images of the uninfected control and infected eye were taken on days 1, 3 and 5 PI using a camera equipped slit lamp biomicroscope. Clinical grading of infection on days 1, 3 and 5 PI was by visualizing through a slit lamp and using an established grading scale (Table 2). A myeloperoxidase assay was used to quantitate the polymorphonuclear cell numbers in the infected and control corneas (data presented in FIG. 6). Viable counts for bacteria were recovered from corneas at day 1, 3 and 5 PI (FIG. 7).
1. IP injections of ketamine and xylazine mixture were given (final dose 100 and 10 mg/kg respectively) to anesthetize the mice.
2. Pre-treatment group-5 μl of peptide (40 μM) was instilled topically onto intact corneas—3 times in 24 h.
3. Day 0—Day of infection: • a. 3×1 mm parallel scratches were made at the center of the right cornea of the mice using a 271/2 gauge needle and 5 μl of P. aeruginosa ATCC19660 bacterial solution (1×10^6 CFU) was pipetted on the wounded cornea. • b. Topically pipetted 5 μl of 40 μM Esc-1a(1-21)NH2 or vehicle (PBS) on the cornea 2-times on Day 0 starting 5 hours after bacterial infection.
4. Day 1 post-infection: • a. Captured images and graded the infection using a slit lamp biomicroscope. • b. Harvested corneas from 2 mice per group, pooled the corneas and processed them to perform the MPO assay. • c. Instilled peptide or vehicle three times/24 hrs (6.30 am, 1.30 pm, 8.30 pm).
5. Repeated the peptide or vehicle treatment 3 times a day for the next 4 days.
6. In addition, captured images, graded the infection and repeated the MPO assay on Day 3 and 5 post-infection.
The mean clinical scores for the Esc-1a(1-21)NH2 treated and PBS vehicle control group at day 1, 3 and 5 PI obtained from 4 separate experiments where the size of inoculum was 1*10^6 CFU/5 μl were plotted (FIG. 5).

[2] = system: human telomerase immortalized corneal epithelial cells; test: in vitro; conditions: 24 hrs
Experimental: (§1) Human corneal epithelial cells were incubated with varying concentrations of Esc-1a(1-21)NH2 for 24 hrs then cytotoxicity determined by MTT assay. Data are the mean of 3 independent experiments.
(§2) To determine the toxicity of Esc-1a(1-21)NH2 to human telomerase immortalized corneal epithelial cells, the following experiment was performed. The MTT (3-(4,5-Dimethylthiazole-2-yl)-2,5-diphenyltetrazolium bromide) assay measures the activity of enzymes that reduce the tetrazolium blue dye to a formazan salt. Mitochondrial reductase enzymes will reduce MTT to formazan, which can be visualized by colorimetric reaction the absorbance of which can be quantified.
(§3) MTT assay was performed on human telomerase immortalized corneal epithelial cells treated with different concentrations of the peptide for 24 hrs. The test was performed in triplicate or quadruplicate wells with concentrations of the peptide of up to 100 μM using the following protocol. On day 1, plated the telomerase immortalized epithelial cells at 10,000 cells/well in a 96 well plate. Incubated the plate at 37° C. for […] to allow the cells to attach to the plate and spread. On day 2, incubated the cells in serum free media for at least 6 hrs prior to peptide treatment. On day 3, stimulated the cells with 100, 50, 25, 10, 5, 1, 0.5 and 0.1 μM Esc-1a(1-21)NH2 in quadruplicate for 24 hrs. On day 4, added 50 μl of 0.02% Benzalkonium chloride into 4 wells as a positive control for 15 minutes. Added 50 μl of serum free media into all the other wells (total volume 100 μl). Added 10 μl of MTT stock solution into each of the well. Incubated at 37° C. for 3 hours. At the end of 3 hours purple crystals were visible under the microscope. Added 100 μl of stop solution into each well using a multichannel pipette. Pipetted up and down to dissolve all the crystals. Gently popped the bubbles using a 10 μl tip. Read plate using plate reader at 590 nm abs and 635 nm reference. Subtracted reference OD value (635) from 590 OD value and plotted graph.

in vitro = conditions: human, human telomerase immortalized corneal epithelial cells
Experimental: as §1, §2, §3

SMILES: CC[C@H](C)[C@H](NC(=O)CN)C(=O)N[C@@H](Cc1ccccc1)C(=O)N[C@@H](CO)C(=O)N[C@@H](CCCCN)C(=O)N[C@@H](CC(C)C)C(=O)N[C@@H](C)C(=O)NCC(=O)N[C@@H](CCCCN)C(=O)N[C@@H](CCCCN)C(=O)N[C@H](C(=O)N[C@@H](CCCCN)C(=O)N[C@@H](CC(N)=O)C(=O)N[C@@H](CC(C)C)C(=O)N[C@@H](CC(C)C)C(=O)N[C@H](C(=O)N[C@@H](CO)C(=O)NCC(=O)N[C@@H](CC(C)C)C(=O)N[C@@H](CCCCN)C(=O)NCC(N)=O)[C@@H](C)CC)[C@@H](C)CC [Esc-1a(1-21)NH2] (H-GIFSKLAGKKIKNLLISGLKG-NH2; N-terminus assumed)
- Peptide concentration fully retaining bactericidal activity (P. aeruginosa ATCC 27853): ≥ 0.68 µM
- reduction in the number of metabolically-active keratinocytes (HaCaT keratinocytes; 2 h treatment, 1-64 μM): did not show any remarkable reduction
- reduction in the percentage of metabolically-active cells (HaCaT keratinocytes; 24 h, 32 μM and 64 μM): approximately 20%
- mean clinical score ([1]; pre-treated (40 μM topical from 24 h before infection), day 1 PI): 1.37±0.07
- mean clinical score ([1]; pre-treated, day 3 PI): 2.29±0.17
- mean clinical score ([1]; pre-treated, day 5 PI): 2.86±0.20
- mean clinical score ([1]; treated after infection (40 μM topical), day 1 PI): 1.38±0.22
- mean clinical score ([1]; treated after infection, day 3 PI): 2.36±0.24
- mean clinical score ([1]; treated after infection, day 5 PI): 2.89±0.26
- concentrations significantly cytotoxic ([2]; MTT (FIG. 4)): above 50 μM
- toxicity to the cells ([2]; concentration below 50 μM): not toxic
- viability at 24 h, 50 µM (in vitro): 75.7%
- viability at 24 h, 100 µM (in vitro): 17.4%
